Reference: US20260022142A1, “MACROCYCLIC IMMUNOMODULATORS” (Bristol-Myers Squibb Company, priority 2022, published 2026)
pIC50: −log10 of the molar value. Bridge positions count the residues as written; N and C are the ends. Square brackets hold non-standard residues; d marks the D form. Peptide text beside a SMILES is read from it. * marks the point of attachment. ξ: configuration not given here. Phe(4-COOH) = N[C@@H](Cc1ccc(C(=O)O)cc1)C(=O)O; Phe(2-CF3) = N[C@@H](Cc1ccccc1C(F)(F)F)C(=O)O; Bip = N[C@@H](Cc1ccc(-c2ccccc2)cc1)C(=O)O; Phe(3-Me) = Cc1cccc(C[C@H](N)C(=O)O)c1; hArg = N=C(N)NCCCC[C@H](N)C(=O)O; 3Pal = N[C@@H](Cc1cccnc1)C(=O)O; 4Pal = N[C@@H](Cc1ccncc1)C(=O)O; d2Pal = N[C@H](Cc1ccccn1)C(=O)O; Cha = N[C@@H](CC1CCCCC1)C(=O)O; Cit = NC(=O)NCCC[C@H](N)C(=O)O; Thr(3ξ) = CC(O)[C@H](N)C(=O)O; Tle = CC(C)(C)[C@H](N)C(=O)O; 12Ado = NCCCCCCCCCCCC(=O)O; Carboxymethyl = O=C(O)C*; Orn = NCCC[C@H](N)C(=O)O; Aun = NCCCCCCCCCCC(=O)O; Dab = NCC[C@H](N)C(=O)O; Dap = NC[C@H](N)C(=O)O; AEEA = NCCOCCOCC(=O)O; Piv = CC(C)(C)C(=O)*

target: T1, PD-1/PD-L1 interaction (PE-labeled human PD-L1-Ig binding to Jurkat cell line over-expressing human PD-1) (Homo sapiens, UniProt Q15116); assay: Jurkat-PD-1 Cell Binding High-Content Screening Assay (CBA); assay type: cell-based; conditions: Jurkat cell line over-expressing human PD-1; PE-labeled PD-L1-Ig 20 nM final; read-out: Jurkat hPD1-PDL1 IC50
T1 construct: expressed in transfected cells; host or cells: Jurkat
T1 sequence (Q15116 25-288): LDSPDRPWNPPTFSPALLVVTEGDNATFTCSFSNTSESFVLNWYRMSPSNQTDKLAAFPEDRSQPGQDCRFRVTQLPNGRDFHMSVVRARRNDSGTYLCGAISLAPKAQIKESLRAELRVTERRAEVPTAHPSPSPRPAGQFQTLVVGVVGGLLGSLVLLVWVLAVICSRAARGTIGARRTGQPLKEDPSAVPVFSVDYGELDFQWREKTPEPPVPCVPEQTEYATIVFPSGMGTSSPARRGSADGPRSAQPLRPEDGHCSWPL
Summary of the method: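 Jurkat cells stably over-expressing human PD-1 were seeded in DMEM with 10% fetal calf serum and pre-incubated with compound for 2 h at 37° C. PE-labeled human PD-L1-Ig was then added at 20 nM final for 1 hour, after which cells were fixed with paraformaldehyde, Hoechst-stained and imaged by high-content microscopy.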

| SMILES | pIC50 |
| --- | --- |
| Cc1cccc(C[C@@H]2NC(=O)[C@H](CC(=O)O)NC(=O)[C@H](Cc3ccc(OCC(=O)O)cc3)NC(=O)[C@H](CN)NC(=O)CSC[C@@H](C(=O)N[C@@H](CCN)C(=O)NCCOCCOCC(=O)NCCCCCCCCCCC(=O)O)NC(=O)[C@H](CCC(=O)O)NC(=O)[C@H](C(C)C)NC(=O)[C@H](Cc3ccccc3C(F)(F)F)NC(=O)[C@H](CCN)NC(=O)[C@@H](CC(C)C)NC(=O)[C@H](CCCN)NC(=O)[C@H](Cc3ccc(OCC(=O)O)cc3)NC(=O)[C@H](Cc3ccc(-c4ccccc4)cc3)NC(=O)[C@H](Cc3ccc(C(=O)O)cc3)NC2=O)c1 [Compound 1267] ({CH2CO}-[Dap]Y(Carboxymethyl)D[Phe(3-Me)][Phe(4-COOH)][Bip]Y(Carboxymethyl)[Orn][dL][Dab][Phe(2-CF3)]VEC[Dab][AEEA][Aun]-OH; thioether N-14) | 7.82 |
| Cc1cccc(C[C@@H]2NC(=O)[C@H](CC(=O)O)NC(=O)[C@H](Cc3ccc(OCC(=O)O)cc3)NC(=O)[C@H](CN)NC(=O)CSC[C@@H](C(=O)N[C@@H](CCN)C(=O)NCCCCCCCCCCC(=O)O)NC(=O)[C@H](Cc3ccc(O)cc3)NC(=O)[C@H](C(C)C)NC(=O)[C@H](CC(C)C)NC(=O)[C@H](CCN)NC(=O)[C@@H](CC(C)C)NC(=O)[C@H](CCCN)NC(=O)[C@H](Cc3ccc(O)cc3)NC(=O)[C@H](Cc3ccc(-c4ccccc4)cc3)NC(=O)[C@H](CC(C)C)NC2=O)c1 [Compound 2759] ({CH2CO}-[Dap]Y(Carboxymethyl)D[Phe(3-Me)]L[Bip]Y[Orn][dL][Dab]LVYC[Dab][Aun]-OH; thioether N-14) | 7.15 |
| Cc1cccc(C[C@@H]2NC(=O)[C@H](CC(=O)O)NC(=O)[C@H](Cc3ccc(O)cc3)NC(=O)[C@H](Cc3ccncc3)NC(=O)CSC[C@@H](C(=O)N[C@@H](CCN)C(=O)NCCOCCOCC(=O)NCCCCCCCCCCC(=O)O)NC(=O)[C@H](CCCN)NC(=O)[C@H](C(C)C)NC(=O)[C@H](CC3CCCCC3)NC(=O)[C@H](CCN)NC(=O)[C@@H](CC(C)C)NC(=O)[C@H](CCCN)NC(=O)[C@H](Cc3ccc(O)cc3)NC(=O)[C@H](Cc3ccc(-c4ccccc4)cc3)NC(=O)[C@H](C(C)C)NC2=O)c1 [Compound 2707] ({CH2CO}-[4Pal]YD[Phe(3-Me)]V[Bip]Y[Orn][dL][Dab][Cha]V[Orn]C[Dab][AEEA][Aun]-OH; thioether N-14) | 7.68 |
| CC[C@H](C)[C@@H]1NC(=O)[C@H](Cc2ccc(-c3ccccc3)cc2)NC(=O)[C@H](C(C)C)NC(=O)[C@H](Cc2cccc(C)c2)NC(=O)[C@H](CC(=O)O)NC(=O)[C@H](Cc2ccc(OCC(=O)O)cc2)NC(=O)[C@H](CN)NC(=O)CSC[C@@H](C(=O)N[C@@H](CCN)C(=O)NCCOCCOCC(=O)NCCCCCCCCCCC(=O)O)NC(=O)[C@H](CCCNC(=N)N)NC(=O)[C@H](C(C)C)NC(=O)[C@H](CC2CCCCC2)NC(=O)[C@H](CCN)NC(=O)[C@@H](CC(C)C)NC(=O)[C@H](CCCN)NC1=O [Compound 2636] ({CH2CO}-[Dap]Y(Carboxymethyl)D[Phe(3-Me)]V[Bip]I[Orn][dL][Dab][Cha]VRC[Dab][AEEA][Aun]-OH; thioether N-14) | 7.65 |
| Cc1cccc(C[C@@H]2NC(=O)[C@H](CC(=O)O)NC(=O)[C@H](Cc3ccc(OCC(=O)O)cc3)NC(=O)[C@H](CN)NC(=O)CSC[C@@H](C(=O)N[C@@H](CCN)C(=O)NCCCCCCCCCCC(=O)O)NC(=O)[C@@H](Cc3ccccn3)NC(=O)[C@H](C(C)C)NC(=O)[C@H](CC3CCCCC3)NC(=O)[C@H](CCN)NC(=O)[C@@H](CC(C)C)NC(=O)[C@H](CCCN)NC(=O)[C@H](Cc3ccc(O)cc3)NC(=O)[C@H](Cc3ccc(-c4ccccc4)cc3)NC(=O)[C@H](C(C)C)NC2=O)c1 [Compound 2764] ({CH2CO}-[Dap]Y(Carboxymethyl)D[Phe(3-Me)]V[Bip]Y[Orn][dL][Dab][Cha]V[d2Pal]C[Dab][Aun]-OH; thioether N-14) | 7.16 |
| Cc1cccc(C[C@@H]2NC(=O)[C@H](CC(=O)O)NC(=O)[C@H](Cc3ccc(OCC(=O)O)cc3)NC(=O)[C@H](CN)NC(=O)CSC[C@@H](C(=O)N[C@@H](CCN)C(=O)NCCOCCOCC(=O)NCCCCCCCCCCC(=O)O)NC(=O)[C@H](CCCN)NC(=O)[C@H](C(C)C)NC(=O)[C@H](CC3CCCCC3)NC(=O)[C@H](CCN)NC(=O)[C@@H](CC(C)C)NC(=O)[C@H](CCCN)NC(=O)[C@H](Cc3cccnc3)NC(=O)[C@H](Cc3ccc(-c4ccccc4)cc3)NC(=O)[C@H](Cc3ccc(O)cc3)NC2=O)c1 [Compound 2055] ({CH2CO}-[Dap]Y(Carboxymethyl)D[Phe(3-Me)]Y[Bip][3Pal][Orn][dL][Dab][Cha]V[Orn]C[Dab][AEEA][Aun]-OH; thioether N-14) | 8.10 |

Second part, the compound after the results:

| pIC50 | SMILES |
| --- | --- |
| 7.15 | Cc1cccc(C[C@@H]2NC(=O)[C@H](CC(=O)O)NC(=O)[C@H](Cc3ccc(OCC(=O)O)cc3)NC(=O)[C@H](CCCNC(=N)N)NC(=O)CSC[C@@H](C(=O)NCCOCCOCC(=O)NCCCCCCCCCCC(=O)O)NC(=O)[C@H](C(C)O)NC(=O)[C@H](C(C)C)NC(=O)[C@H](CC3CCCCC3)NC(=O)[C@H](CCN)NC(=O)[C@@H](CC(C)C)NC(=O)[C@H](CCCNC(N)=O)NC(=O)[C@H](Cc3ccc(OCC(=O)O)cc3)NC(=O)[C@H](Cc3ccc(-c4ccccc4)cc3)NC(=O)[C@H](Cc3ccc(OCC(=O)O)cc3)NC2=O)c1 (stereo partly drawn) [Compound 3481] ({CH2CO}-RY(Carboxymethyl)D[Phe(3-Me)]Y(Carboxymethyl)[Bip]Y(Carboxymethyl)[Cit][dL][Dab][Cha]V[Thr(3ξ)]C[AEEA][Aun]-OH; thioether N-14) |
| 6.09 | Cc1cccc(C[C@@H]2NC(=O)[C@H](CC(=O)O)NC(=O)[C@H](Cc3ccc(OCC(=O)O)cc3)NC(=O)[C@H](CCCCNC(=N)N)NC(=O)CSC[C@@H](C(=O)NCC(=O)N[C@@H](CCC(=O)O)C(=O)NCCCCCCCCCCCC(=O)O)NC(=O)[C@H](CO)NC(=O)[C@H](C(C)C)NC(=O)[C@H](CC3CCCCC3)NC(=O)[C@H](CCN)NC(=O)[C@@H](CC(C)C)NC(=O)[C@H](CCCN)NC(=O)[C@H](CCCNC(N)=O)NC(=O)[C@H](Cc3ccc(-c4ccccc4)cc3)NC(=O)[C@H](C(C)C)NC2=O)c1 [Compound 3183] ({CH2CO}-[hArg]Y(Carboxymethyl)D[Phe(3-Me)]V[Bip][Cit][Orn][dL][Dab][Cha]VSCGE[12Ado]-OH; thioether N-14) |
| 7.45 | Cc1cccc(C[C@@H]2NC(=O)[C@H](CC(=O)O)NC(=O)[C@H](Cc3ccc(OCC(=O)O)cc3)NC(=O)[C@H](CNC(=O)C(C)(C)C)NC(=O)CSC[C@@H](C(=O)N[C@@H](CC(N)=O)C(=O)NCCCCCCCCCCC(=O)O)NC(=O)[C@H](C(C)O)NC(=O)[C@H](C(C)(C)C)NC(=O)[C@H](CC3CCCCC3)NC(=O)[C@H](CCN)NC(=O)[C@@H](CC(C)C)NC(=O)[C@H](CCCN)NC(=O)[C@H](Cc3ccc(OCC(=O)O)cc3)NC(=O)[C@H](Cc3ccc(-c4ccccc4)cc3)NC(=O)[C@H](Cc3ccc(O)cc3)NC2=O)c1 (stereo partly drawn) [Compound 3518] ({CH2CO}-[Dap](Piv)Y(Carboxymethyl)D[Phe(3-Me)]Y[Bip]Y(Carboxymethyl)[Orn][dL][Dab][Cha][Tle][Thr(3ξ)]CN[Aun]-OH; thioether N-14) |
